Here are results for 3 compounds from patent US9267122B2, “Modulation of phospholipase D for the treatment of neurodegenerative disorders” (THE TRUSTEES OF COLUMBIA UNIVERSITY IN THE CITY OF NEW YORK, priority 2009, dated 2016).

One may read the IC50 as the point on the concentration scale where inhibition reaches its midpoint.

Assay [1] deals with primary cortical neurons. The assay is described as follows: Rescue of oAβ42-induced decrease in PIP2 levels in primary cortical neuronal cultures. It is filed as cell-based, mice. Particulars: 750 nM FIPI pretreatment for 1 hour, then 200 nM oAβ42 for 2 hours; n=3.
For assay [2], the system named is N2a cells expressing swAPP. The assay is described as follows: Aβ secretion by N2a cells expressing swAPP (ELISA). Format: cell-based. Here is the method:
N2a cells expressing swAPP after reaching confluence, were replaced with new media and treated either with vehicle (black) or FIPI (gray) for 6 hours. The media was collected and both Aβ40 (A) and Aβ42 (B) were measured by ELISA. n=6.
(An ELISA detects its analyte on a solid surface through an enzyme-linked reagent.)

Assay [3] has as its target T1, PLD1 (Homo sapiens, UniProt Q13393).
T1 sequence (Q13393 1-1074): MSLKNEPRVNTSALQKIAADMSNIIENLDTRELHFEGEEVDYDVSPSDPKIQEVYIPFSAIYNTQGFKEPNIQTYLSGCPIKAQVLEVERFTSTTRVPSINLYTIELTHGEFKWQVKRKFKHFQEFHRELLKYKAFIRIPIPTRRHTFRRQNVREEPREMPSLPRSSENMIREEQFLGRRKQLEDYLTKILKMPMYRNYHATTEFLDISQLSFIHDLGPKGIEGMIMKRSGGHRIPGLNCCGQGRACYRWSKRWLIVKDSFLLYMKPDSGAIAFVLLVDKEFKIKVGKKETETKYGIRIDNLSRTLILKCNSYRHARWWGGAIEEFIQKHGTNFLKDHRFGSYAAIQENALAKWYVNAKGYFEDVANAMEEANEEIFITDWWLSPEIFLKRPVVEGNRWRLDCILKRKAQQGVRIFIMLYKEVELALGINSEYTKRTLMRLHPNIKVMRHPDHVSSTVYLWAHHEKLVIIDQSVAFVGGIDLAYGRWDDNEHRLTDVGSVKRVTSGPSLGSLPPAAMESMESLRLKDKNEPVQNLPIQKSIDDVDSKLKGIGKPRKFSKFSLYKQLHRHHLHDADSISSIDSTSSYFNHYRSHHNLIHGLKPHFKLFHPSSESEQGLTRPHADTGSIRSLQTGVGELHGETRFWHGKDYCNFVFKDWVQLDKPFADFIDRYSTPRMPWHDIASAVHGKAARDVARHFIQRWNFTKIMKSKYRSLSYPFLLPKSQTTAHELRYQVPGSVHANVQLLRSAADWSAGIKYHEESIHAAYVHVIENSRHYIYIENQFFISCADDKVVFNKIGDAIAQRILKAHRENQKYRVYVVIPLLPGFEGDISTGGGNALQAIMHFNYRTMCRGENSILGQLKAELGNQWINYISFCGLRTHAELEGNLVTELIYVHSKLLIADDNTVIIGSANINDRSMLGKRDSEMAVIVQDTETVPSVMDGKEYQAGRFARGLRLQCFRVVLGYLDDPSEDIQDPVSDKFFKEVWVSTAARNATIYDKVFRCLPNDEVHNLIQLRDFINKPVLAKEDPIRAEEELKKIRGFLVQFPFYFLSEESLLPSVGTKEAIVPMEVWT
The conditions noted are these: PLD1 versus PLD2; cited from earlier work.

The test system of assay [4] is 293-PLD2. Particulars: cited from earlier work.
In assay [5] the test system is Calu-1. Particulars: cited from earlier work.

The structures appear in SMILES notation. “Also recorded” adds a separate entry of the source.

Take `O=C(NCCN1CCC(n2c(=O)[nH]c3ccccc32)CC1)c1cc2cc(F)ccc2[nH]1` [FIPI, 5-Fluoro-2-indolyl des-chlorohalopemide]: the “PIP2 levels after oAβ42” value in assay [1] is reported as “partially rescues oAβ42 induced decrease in PIP2 levels; also recorded: partially rescue PIP2 deficiency”. In assay [2] (N2A cells expressing swAPP treated with FIPI, 6 hours, ELISA of media), the “secreted Aβ42” value is given as “secrete lower amounts of Aβ42”. Further, in assay [2] (N2a swAPP cells, FIPI versus vehicle for 6 hours, ELISA, n=6), the “production of Aβ (Aβ40 and Aβ42)” value is “decrease production of Aβ”. Also, the PLD isoform selectivity result in assay [3] was “blocks both PLD1 and PLD2”.
Take `O=C(NCCN1CCC2(CC1)C(=O)NCN2c1ccccc1)c1cnc2ccccc2c1` [compound 9b, N-(2-(4-oxo-1-phenyl-1,3,8-triazaspiro[4,5]decan-8-yl)ethyl)quinoline-3-carboxamide]: the IC50 is 0.09 µM in assay [4] and 1.9 µM in assay [5].
For `C[C@@H](CN1CCC(n2c(=O)[nH]c3cc(Br)ccc32)CC1)NC(=O)[C@@H]1C[C@H]1c1ccccc1` [compound 13r, (1R,2R)—N—((S)-1-(4-(5-bromo-2-oxo-2,3-dihydro-1H-benzo[d]imidazol-1-yl)piperidin-1-yl)propan-2-yl)-2-phenylcyclopropanecarboxamide], in assay [5], the 50% inhibitory concentration (IC50) is 0.0037 µM.
